This is an account of results in US8933012B2, “Glycopeptide antibiotic derivative” (priority 2006, dated 2015).

Converted amounts (≈) assume the structure as drawn.

A short description of series [1]: Single-dose intravenous toxicity screening test in mouse. The note with it: single intravenous dose 30 mg/kg, compared with corresponding compound having -COOH at the C-terminal. The series is classed as in vivo. How it is done:
The compounds of the invention were tested for water solubility and toxicity.

In series [2] the test system is methicillin-resistant Staphylococcus aureus S. aureus SR3637 (H-MRSA). In words: In vitro antimicrobial activity, MIC by microdilution method. Type of series: cell-based. As to the method:
(§1) In Vitro Assay of Antimicrobial Activity
(§2) For several compounds of the invention, minimal inhibitory concentration (MIC) was determined by the microdilution method using cation adjusted Mueller-Hinton broth well known in the art.
On the technique in general: Broth dilution looks for growth in wells or tubes with falling amounts of substance.

The subject of series [3] is vancomycin-resistant enterococcus E. faecalis SR7914 (VanA). Described as above. Type of series: cell-based. How it is done:
as §1, §2

Consider `CCNNC(=O)C1NC(=O)C2NC(=O)[C@H](NC(=O)[C@@H]3NC(=O)[C@H](CC(N)=O)NC(=O)C(NC(=O)[C@@H](CC(C)C)NC)[C@H](O)c4ccc(c(Cl)c4)Oc4cc3cc(c4OC3O[C@H](CO)[C@@H](O)[C@H](O)[C@H]3OC3C[C@](C)(NCc4cccc(NC(=O)c5ccc(OC(F)(F)F)cc5)c4)[C@H](O)[C@H](C)O3)Oc3ccc(cc3Cl)[C@H]2O)c2ccc(O)c(c2)-c2c(O)cc(O)cc21` (stereo partly drawn) [Example 2], for which, in series [1], the “histological findings in kidney etc.” value is “good histological findings”. A word on the MIC: it is the lowest concentration found to suppress growth. Low values mean a more susceptible organism, high ones a less susceptible organism. In the case of `CN[C@H](CC(C)C)C(=O)NC1C(=O)N[C@@H](CC(N)=O)C(=O)N[C@H]2C(=O)N[C@H]3C(=O)NC(C(=O)NC(C(=O)NO)c4cc(O)cc(O)c4-c4cc3ccc4O)[C@H](O)c3ccc(c(Cl)c3)Oc3cc2cc(c3OC2O[C@H](CO)[C@@H](O)[C@H](O)[C@H]2OC2C[C@](C)(NCCC3CCN(C(=O)Nc4ccc(OC(F)(F)F)cc4)CC3)[C@H](O)[C@H](C)O2)Oc2ccc(cc2Cl)[C@H]1O` (stereo partly drawn) [Example 4], the MIC in series [2] stood at 0.5 µg/mL (≈ 0.281 µM); in series [3], 4 µg/mL (≈ 2.25 µM).
